Test results published in patent US9485972B2, “Truncated tau proteins” (Axon Neuroscience SE, priority 2002, dated 2016).

Key:
[1] = system: purified porcine brain tubulin; test: Microtubule assembly assay (MAA) with tau type IA and type IB; assay type: biochemical; settings: tau 0.1 mg/ml, tubulin 1 mg/ml, 1 mM GTP, 37° C., 20 min
Experimental: The physiological function of healthy tau consists in stabilizing microtubules (MTs). This function can be measured by a microtubule assembly assay (MAA). In this examples, the MAA reactions were carried out using three types of tau molecules: normal healthy human tau, recombinant forms of tau type IA (SEQ ID NO: 1) and tau type IB (SEQ ID NO: 4). Normal human tau, tau type IA and type IB were assayed individually in separate reactions. Single preparations of tau at 0.1 mg/ml were mixed with purified porcine brain tubulin at a final concentration of 1 mg/ml and 1 mM GTP, all materials in polymerisation buffer (100 mM PIPES, pH 6.9, 1 mM MgSO4, 2 mM EGTA). Tau was added last to initiate the promotion of MT assembly. After gentle and rapid mixing, the samples were pipetted into quartz microcuvettes and equilibrated at 37° C. in a thermostatically controlled spectrophotometer (Beckman Coulter DU640). The turbidity was continuously monitored at 340 nm in 10 s intervals for a period of 20 min.

Human tubulin = test: Inhibition of microtubule assembly by tau type IA and IB (tubulin preincubated, then normal human tau); assay type: biochemical; settings: tubulin preincubated 1 hr at 37° C. with 0.2 mg/ml type IA or IB; normal human tau 0.1 mg/ml; 340 nm, 5 min
Experimental: Both tau type IA and IB molecules lack functional activity when applied in a the MT assembly assay (MAA). […] For inhibition of microtubule assembly, recombinant forms of tau type IA (SEQ ID NO:1) and type IB (SEQ ID NO:4) were used. The assembly-inhibition reactions were carried out separately using type IA and type IB proteins. Human tubulin (2 mg/ml) was mixed with either type IA molecules (0.2 mg/ml) or type IB molecules (0.2 mg/ml). The mixtures were incubated 1 hr at 37° C. with gently shaking. To the mixtures kept on ice normal human tau (0.1 mg/ml) and GTP (final concentration of tubulin in the mixture is 1 mg/ml and GTP 1 mM) were added in polymerization buffer (100 mM PIPES, pH 6.9, 1 mM MgSO4, 2 mM EGTA). After gentle and rapid mixing, the samples were pipetted into quartz microcuvettes and equilibrated at 37° C. in a thermostatically controlled spectrophotometer (Beckman Coulter DU640). The turbidity changes were measured at 340 nm in 10 sec intervals over a period of 5 min.

tubulin [2] = test: Inhibitory effect of AD-brain derived and recombinant tau type IA on normal healthy tau in microtubule assembly assay; assay type: biochemical; settings: 0.2 mg/ml type IA or IB, healthy tau 0.1 mg/ml, tubulin 1 mg/ml, preincubation 1 hr at 37° C., 340 nm, 5 min
Text: AD-brain extracts as well as recombinant molecules of tau type IA are capable to inhibit microtubule assembly promotion when using natural healthy tau isoforms. For these experiments healthy human tau was isolated from brains of age matched controls and tau type IA was isolated from brains of AD patients (see Example 6, FIG. 6, fraction #19). Recombinant tau type IA (SEQ ID NO: 1) and type IB (SEQ ID NO:4, negative control) were produced and purified as shown in Example 6. In these experiments, brain-derived healthy tau isoforms (0.1 mg/ml), AD-brain derived or recombinant type IA tau or type IB (0.2 mg/ml) were mixed with tubulin. Each combination was assayed separately. The test mixtures were incubated 1 hr at 37° C. in a water bath with gently shaking. To the mixture kept on ice was added GTP and/or normal tau (final concentration of tubulin is 1 mg/ml and GTP 1 mM) all reagencies in polymerisation buffer (100 mM PIPES, pH 6.9, 1 mM MgSO4, 2 mM EGTA). After gentle and rapid mixing, the samples were pipetted into quartz microcuvettes and equilibrated at 37° C. in a thermostatically controlled spectrophotometer (Beckman Coulter DU640). The turbidity changes were measured at 340 nm in 10 s intervals for a period of 5 min. […] Curve 1 (FIG. 12) represents microtubule assembly promoted by normal tau.

tubulin [3] = test: Microtubule assembly with tau type IIA and IIB; assay type: biochemical; settings: tau 0.1 mg/ml, tubulin 1 mg/ml, GTP 1 mM, 37° C., 340 nm, 5 min
Experimental: The microtubule assembly reactions were carried out using three types of molecules: natural healthy human tau isoforms, Alz. tau type IIA (SEQ ID NO: 12) and tau type JIB (SEQ ID NO: 19). Three separate reactions were performed, each with single preparation of respective tau (healthy tau, recombinant tau type IIA or type IIB). Individual tau preparations at 0.1 mg/ml were mixed with tubulin and GTP (final concentration of tubulin is 1 mg/ml and GTP 1 mM), all reagencies in polymerisation buffer (100 mM PIPES, pH 6.9, 1 mM MgSO4, 2 mM EGTA). After gentle and rapid mixing, the samples were pipetted into quartz microcuvettes and equilibrated at 37° C. in a thermostatically controlled spectrophotometer (Beckman Coulter DU640). The turbidity changes were measured at 340 nm in 10 s intervals for a period of 5 min.

microtubules = test: Electron microscopy of microtubules formed with tau; assay type: biochemical
Text: However, Alzheimer tau type II produces pathological microtubules with typical pattern (see FIG. 28C).

[4] = system: neuroblastoma cells expressing tau type IIA; test: Oxidative stress (SIN-1) vulnerability, MTT reduction assay; assay type: cell-based, human; settings: cells expressing the tau protein vs non-expressing cells, SIN-1 0-3.3 mM, 24 hours
Text: In the present example, the oxidative decomposition of 3-morpholinosydnonimine (SIN-1) was used which generates superoxide anions and nitric oxide, which react and thereby form peroxynitrite. This very reactive radical can further oxidize mainly cellular membrane systems. Persons skilled in art will be able to also apply another sources of oxidative stress to neuroblastoma cells in culture and will be able to obtain the same effect here described by the use on SIN-1.
The effect of vulnerability was tested as follows: • 1. SIN-1 was applied at various concentrations (0-3.32 mM) to human neuronal cell lines expressing tau type IIA protein SEQ ID NO 15 and SEQ ID NO 11, respectively. • 2. […] The EC50 values were compared for neuroblastoma cell lines in the presence or absence of diseased tau type IIA protein expression and the statistical significance of EC50 value differences was assessed by t-test. […]
After five day, SIN-1 was added in concentrations ranging from 0 to 3.3 mM and the plates were incubated for 24 hours. […] The absorbance at 540 nm with background correction at 690 nm was measured on ELISA reader and the background-subtracted values were used for EC50 calculation, as it is well known in the art. […]

tau monoclonal antibody = test: Competitive ELISA, affinity of monoclonal antibody to tau type IA and deletion mutants; assay type: binding; settings: read-out: apparent affinity (antigen concentration needed for 50% competition with prototype tau type IA)
Experimental: FIG. 5: Affinity of monoclonal antibody to diseased tau type IA protein and its deletion mutants. Apparent affinity of monoclonal antibody to diseased tau type IA protein and its deletion mutants. In the first column are listed: the ‘prototype’ tau type IA protein (SEQ ID NO 1) and respective deletion mutants. In the middle column are indicated epitopes of the present invention. Apparent affinities stated in the last column were measured by competitive ELISA, and shown as the concentrations of corresponding antigen needed for 50% competition with the prototype tau type IA protein.
The significance of the ‘conformational region’ in tau type IA (segment A) or its parts was determined by sequential deletion either of whole conformation region (segment A) or its individual parts called epitopes and designated A1-A6. Since the conformation of type IA molecules strongly correlates with their function, the contribution of each epitope (A1-A6) to the overall conformation of the ‘segment A’ was measured on the basis of its reactivity when using a tau monoclonal antibody (FIG. 5).

Substance: SEQ ID NO: 4: type IB double truncated tau, 239-326, R4
- microtubule assembly promotion (turbidity at 340 nm) [1]: lacked any MT assembly promotion
- inhibition of microtubule assembly promoted by normal human tau (Human tubulin): does not inhibit the microtubule assembly capacity of normal tau
- inhibition of the capacity of normal tau to promote microtubule assembly (tubulin [2]): not able to inhibit

Substance: SEQ ID NO: 19: type IIB double truncated tau, 6-378, R4
- promotion of microtubule assembly compared to healthy tau (tubulin [3]): promote microtubule assembly only to the level seen with healthy tau

Substance: tau 43: shortest four repeat tau isoform, 383 amino acids, missing exons 2 and 3
- type of microtubules formed (electron microscopy) (microtubules): forms typical microtubules

Substance: SEQ ID NO: 18: type IIA double truncated tau, 69-332, R3
- decrease of resistance of neuroblastoma cells to oxidative stress (EC50 of SIN-1) [4]: 50%

Substance: SEQ ID NO: 12: type IIA double truncated tau, 93-333, R4
- decrease of resistance of neuroblastoma cells to oxidative stress (EC50 of SIN-1) [4]: 50%
- promotion of microtubule assembly compared to healthy tau (tubulin [3]): extremely high (threefold) promotion

Substance: SEQ ID NO: 1: type IA N- and C-terminally double truncated tau, residues 239-333 of four repeat tau43
- microtubule assembly promotion (turbidity at 340 nm) [1]: lacked any MT assembly promotion
- inhibition of microtubule assembly promoted by normal human tau (Human tubulin): abolished microtubule assembly
- IC50 (tau monoclonal antibody): 10 nM
- inhibition of the capacity of normal tau to promote microtubule assembly (tubulin [2]): inhibit the capacity of normal tau to promote microtubule assembly

Substance: normal healthy tau: tau protein derived from healthy brains [reference compound]
- microtubule assembly promotion (turbidity at 340 nm) [1]: microtubule assembly promotion capacity
